Assay results published in patent US12637469B2, “1H-pyrazole derivative and application thereof as dual target inhibitor of Syk and VEGFR2” (Ocumension Therapeutics (Suzhou) Co., Ltd., priority 2020, dated 2026).

Experiments:
[1] = biological target: T1, TrkA(h) (Homo sapiens, UniProt P04629); assay: Eurofins KinaseProfiler off-target kinase inhibition; format: biochemical
T1 construct: purchased Eurofins (KinaseProfiler platform)
Protocol: (§1) In order to investigate the specificity of the inhibition of the target by the compound, in this study, the activity and selectivity of test compound 1 on the off-target kinases in related pathways were tested on the Eurofins kinaseProfiler™ platform, and compound screening and analysis were conducted using IC50 value as the indicator.
(§2) Compound 1 was detected for each selected kinase using the standard Eurofins Kinase Profiler™ protocol, which followed the relevant standard operating procedures. The IC50 values of the inhibitory activity of the test compound 1 on 67 kinases including Abl(h), B-Raf(h), BTK(h) and JAK(h) were analyzed.

[2] = biological target: T2, MEK1(h) (Homo sapiens, UniProt Q02750); assay: as above; format: biochemical
T2 construct: purchased Eurofins (KinaseProfiler service)
T2 sequence (Q02750 whole entry): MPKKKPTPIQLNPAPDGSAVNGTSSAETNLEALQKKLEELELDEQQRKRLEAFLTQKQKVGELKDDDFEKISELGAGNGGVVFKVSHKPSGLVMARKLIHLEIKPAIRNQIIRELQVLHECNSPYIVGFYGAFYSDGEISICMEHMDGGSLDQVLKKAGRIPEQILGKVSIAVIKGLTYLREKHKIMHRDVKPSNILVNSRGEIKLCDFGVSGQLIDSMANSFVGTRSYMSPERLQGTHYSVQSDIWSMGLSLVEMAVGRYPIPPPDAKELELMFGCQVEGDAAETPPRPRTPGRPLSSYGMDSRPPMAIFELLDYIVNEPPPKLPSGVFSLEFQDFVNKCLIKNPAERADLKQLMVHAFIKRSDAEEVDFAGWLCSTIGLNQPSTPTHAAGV
Protocol: as §1, §2

[3] = biological target: T3, TGFBR1(h) (Homo sapiens, UniProt P36897); assay: as above; format: biochemical
T3 construct: purchased Eurofins (KinaseProfiler platform)
Protocol: as §1, §2

[4] = biological target: T4, Itk(h) (Homo sapiens, UniProt Q08881); assay: as above; format: biochemical
T4 construct: purchased Eurofins (KinaseProfiler service)
Protocol: as §1, §2

[5] = biological target: T5, SAPK3(h) (Homo sapiens, UniProt P53778); assay: as above; format: biochemical
T5 construct: purchased Eurofins (KinaseProfiler platform)
T5 sequence (P53778 whole entry): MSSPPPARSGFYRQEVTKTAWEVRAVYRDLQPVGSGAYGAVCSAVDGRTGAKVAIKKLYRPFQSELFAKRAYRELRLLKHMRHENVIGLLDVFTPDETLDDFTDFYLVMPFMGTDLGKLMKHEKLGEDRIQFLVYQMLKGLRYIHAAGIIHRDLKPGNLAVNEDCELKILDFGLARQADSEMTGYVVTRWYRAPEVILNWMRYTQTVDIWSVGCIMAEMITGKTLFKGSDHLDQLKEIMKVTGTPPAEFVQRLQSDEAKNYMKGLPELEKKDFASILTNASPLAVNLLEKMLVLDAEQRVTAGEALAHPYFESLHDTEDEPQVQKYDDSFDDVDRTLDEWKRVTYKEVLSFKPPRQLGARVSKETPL
Protocol: as §1, §2

[6] = biological target: T6, FGFR3(h) (Homo sapiens, UniProt P22607); assay: as above; format: biochemical
T6 construct: purchased Eurofins (KinaseProfiler platform)
Protocol: as §1, §2

[7] = biological target: T7, Lyn(h) (Homo sapiens, UniProt P07948); assay: as above; format: biochemical
T7 construct: purchased Eurofins (KinaseProfiler service)
Protocol: as §1, §2

[8] = biological target: T8, JAK3(h) (Homo sapiens, UniProt P52333); assay: as above; format: biochemical
T8 construct: purchased Eurofins (KinaseProfiler service)
Protocol: as §1, §2

[9] = biological target: T9, ACTR2(h) (Homo sapiens, UniProt P27037); assay: as above; format: biochemical
T9 construct: purchased Eurofins (KinaseProfiler platform)
Protocol: as §1, §2

[10] = biological target: T10, ROCK-II(h) (Homo sapiens, UniProt O75116); assay: as above; format: biochemical
T10 construct: purchased Eurofins (KinaseProfiler platform)
Protocol: as §1, §2

[11] = biological target: T11, PDGFRα(h) (Homo sapiens, UniProt P16234); assay: as above; format: biochemical
T11 construct: purchased Eurofins (KinaseProfiler service)
T11 sequence (P16234 24-1089): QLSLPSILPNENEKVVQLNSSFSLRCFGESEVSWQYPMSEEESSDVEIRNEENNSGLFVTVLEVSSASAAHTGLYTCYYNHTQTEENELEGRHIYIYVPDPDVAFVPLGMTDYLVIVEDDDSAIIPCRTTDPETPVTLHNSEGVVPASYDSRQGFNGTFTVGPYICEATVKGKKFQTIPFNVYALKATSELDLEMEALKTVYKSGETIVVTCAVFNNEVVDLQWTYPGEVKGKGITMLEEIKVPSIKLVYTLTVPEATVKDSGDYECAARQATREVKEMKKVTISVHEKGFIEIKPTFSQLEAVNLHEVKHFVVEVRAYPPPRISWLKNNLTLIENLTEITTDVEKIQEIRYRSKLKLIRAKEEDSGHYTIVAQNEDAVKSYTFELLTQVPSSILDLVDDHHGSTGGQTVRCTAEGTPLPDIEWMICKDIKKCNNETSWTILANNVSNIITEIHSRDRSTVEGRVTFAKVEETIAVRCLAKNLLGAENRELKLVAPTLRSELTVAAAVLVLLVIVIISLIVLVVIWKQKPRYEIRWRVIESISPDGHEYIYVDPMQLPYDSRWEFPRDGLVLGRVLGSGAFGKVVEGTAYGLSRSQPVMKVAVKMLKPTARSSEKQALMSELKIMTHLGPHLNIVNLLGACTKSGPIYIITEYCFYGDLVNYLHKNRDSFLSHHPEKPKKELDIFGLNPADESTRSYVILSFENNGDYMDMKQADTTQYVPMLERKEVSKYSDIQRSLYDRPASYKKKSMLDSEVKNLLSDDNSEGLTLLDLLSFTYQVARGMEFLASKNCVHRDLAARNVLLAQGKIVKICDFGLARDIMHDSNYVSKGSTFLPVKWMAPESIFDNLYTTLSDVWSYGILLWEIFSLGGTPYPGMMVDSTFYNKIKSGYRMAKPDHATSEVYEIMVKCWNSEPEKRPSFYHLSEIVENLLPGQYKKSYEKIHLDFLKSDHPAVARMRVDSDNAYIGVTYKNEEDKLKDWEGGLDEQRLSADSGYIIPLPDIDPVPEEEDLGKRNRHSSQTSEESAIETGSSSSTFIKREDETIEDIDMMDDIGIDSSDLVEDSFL
Protocol: as §1, §2

[12] = biological target: T12, MSK1(h) (Homo sapiens, UniProt O75582); assay: as above; format: biochemical
T12 construct: purchased Eurofins (KinaseProfiler service)
Protocol: as §1, §2

[13] = biological target: T13, JNK2α2(h) (Homo sapiens, UniProt P45984); assay: as above; format: biochemical
T13 construct: purchased Eurofins (KinaseProfiler service)
Protocol: as §1, §2

[14] = biological target: T14, FGFR1(h) (Homo sapiens, UniProt P11362); assay: as above; format: biochemical
T14 construct: purchased Eurofins (KinaseProfiler platform)
T14 sequence (P11362 22-822): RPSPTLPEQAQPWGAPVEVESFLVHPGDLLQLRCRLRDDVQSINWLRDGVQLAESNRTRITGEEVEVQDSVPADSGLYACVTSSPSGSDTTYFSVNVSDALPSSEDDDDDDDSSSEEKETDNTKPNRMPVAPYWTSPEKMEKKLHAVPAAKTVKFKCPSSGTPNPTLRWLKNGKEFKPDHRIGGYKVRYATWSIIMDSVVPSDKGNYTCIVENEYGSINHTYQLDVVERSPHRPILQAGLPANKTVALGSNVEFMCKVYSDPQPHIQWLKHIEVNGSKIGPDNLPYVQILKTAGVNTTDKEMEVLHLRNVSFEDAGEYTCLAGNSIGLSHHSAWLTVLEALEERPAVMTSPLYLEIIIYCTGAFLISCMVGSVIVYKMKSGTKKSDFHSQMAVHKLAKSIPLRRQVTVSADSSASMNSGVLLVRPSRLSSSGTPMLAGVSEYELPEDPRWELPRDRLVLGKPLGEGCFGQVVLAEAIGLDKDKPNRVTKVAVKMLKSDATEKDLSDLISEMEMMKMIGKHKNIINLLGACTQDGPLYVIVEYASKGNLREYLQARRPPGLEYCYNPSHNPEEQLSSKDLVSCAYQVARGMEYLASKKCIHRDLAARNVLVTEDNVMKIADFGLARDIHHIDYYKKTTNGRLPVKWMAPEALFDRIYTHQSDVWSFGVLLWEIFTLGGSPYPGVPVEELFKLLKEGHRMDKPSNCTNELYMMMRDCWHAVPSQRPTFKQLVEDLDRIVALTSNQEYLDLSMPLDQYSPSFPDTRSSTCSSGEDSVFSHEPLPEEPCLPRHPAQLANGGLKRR
Protocol: as §1, §2

[15] = biological target: T15, ErbB2(h) (Homo sapiens, UniProt P04626); assay: as above; format: biochemical
T15 construct: purchased Eurofins (KinaseProfiler platform)
T15 sequence (P04626 23-1255): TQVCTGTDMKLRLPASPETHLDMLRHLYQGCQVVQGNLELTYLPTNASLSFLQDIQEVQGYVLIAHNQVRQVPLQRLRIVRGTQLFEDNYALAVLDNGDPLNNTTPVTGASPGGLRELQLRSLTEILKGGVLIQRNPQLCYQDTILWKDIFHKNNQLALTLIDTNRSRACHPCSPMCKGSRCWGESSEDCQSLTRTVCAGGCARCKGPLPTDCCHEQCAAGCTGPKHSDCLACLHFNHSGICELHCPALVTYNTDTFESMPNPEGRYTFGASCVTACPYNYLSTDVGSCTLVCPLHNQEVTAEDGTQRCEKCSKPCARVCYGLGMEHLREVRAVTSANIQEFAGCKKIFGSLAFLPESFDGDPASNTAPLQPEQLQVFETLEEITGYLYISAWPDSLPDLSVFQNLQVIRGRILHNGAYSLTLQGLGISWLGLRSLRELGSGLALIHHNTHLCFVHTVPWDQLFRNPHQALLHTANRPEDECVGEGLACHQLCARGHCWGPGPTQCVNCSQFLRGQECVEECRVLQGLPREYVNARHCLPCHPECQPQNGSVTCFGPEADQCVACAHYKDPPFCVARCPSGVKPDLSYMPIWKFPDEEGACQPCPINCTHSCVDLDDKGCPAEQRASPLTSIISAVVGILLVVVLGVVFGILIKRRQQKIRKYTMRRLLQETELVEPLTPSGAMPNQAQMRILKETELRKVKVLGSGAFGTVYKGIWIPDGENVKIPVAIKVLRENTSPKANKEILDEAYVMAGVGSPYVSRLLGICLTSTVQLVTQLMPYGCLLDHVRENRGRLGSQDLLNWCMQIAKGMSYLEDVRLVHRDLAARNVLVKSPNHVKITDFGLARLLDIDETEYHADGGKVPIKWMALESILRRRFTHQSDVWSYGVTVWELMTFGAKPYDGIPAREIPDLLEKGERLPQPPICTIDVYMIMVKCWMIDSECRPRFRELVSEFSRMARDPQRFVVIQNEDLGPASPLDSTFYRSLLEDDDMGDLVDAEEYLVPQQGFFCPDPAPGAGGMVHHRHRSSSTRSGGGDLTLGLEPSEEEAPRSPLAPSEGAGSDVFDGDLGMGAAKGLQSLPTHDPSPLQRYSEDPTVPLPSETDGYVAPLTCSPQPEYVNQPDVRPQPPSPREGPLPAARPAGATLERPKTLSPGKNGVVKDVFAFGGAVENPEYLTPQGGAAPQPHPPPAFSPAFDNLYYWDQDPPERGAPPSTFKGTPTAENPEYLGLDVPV
Protocol: as §1, §2

[16] = biological target: T16, FGFR2(h) (Homo sapiens, UniProt P21802); assay: as above; format: biochemical
T16 construct: purchased Eurofins (KinaseProfiler service)
Protocol: as §1, §2

[17] = biological target: T17, IR(h) (Homo sapiens, UniProt P06213); assay: as above; format: biochemical
T17 construct: purchased Eurofins (KinaseProfiler service)
Protocol: as §1, §2

[18] = biological target: T18, mTOR/FKBP12(h) (Homo sapiens, UniProt P42345); assay: as above; format: biochemical
T18 construct: purchased Eurofins (KinaseProfiler service)
Protocol: as §1, §2

[19] = biological target: T19, PKA(h) (Homo sapiens, UniProt P17612); assay: as above; format: biochemical
T19 construct: purchased Eurofins (KinaseProfiler service)
Protocol: as §1, §2

[20] = biological target: T20, MEK2(h) (Homo sapiens, UniProt P36507); assay: as above; format: biochemical
T20 construct: purchased Eurofins (KinaseProfiler service)
T20 sequence (P36507 whole entry): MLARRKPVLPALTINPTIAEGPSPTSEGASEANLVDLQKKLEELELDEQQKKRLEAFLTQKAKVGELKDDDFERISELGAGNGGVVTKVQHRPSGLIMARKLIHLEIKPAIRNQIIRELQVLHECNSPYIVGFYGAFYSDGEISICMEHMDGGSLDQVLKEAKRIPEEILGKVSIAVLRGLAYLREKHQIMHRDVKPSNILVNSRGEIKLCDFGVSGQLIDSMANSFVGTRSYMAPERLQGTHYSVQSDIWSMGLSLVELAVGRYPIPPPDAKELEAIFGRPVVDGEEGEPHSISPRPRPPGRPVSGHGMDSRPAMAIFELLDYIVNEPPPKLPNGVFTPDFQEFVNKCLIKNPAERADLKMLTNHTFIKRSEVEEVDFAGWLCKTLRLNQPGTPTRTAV
Protocol: as §1, §2

[21] = biological target: T21, BTK(h) (Homo sapiens, UniProt Q06187); assay: as above; format: biochemical
T21 construct: purchased Eurofins (KinaseProfiler platform)
Protocol: as §1, §2

[22] = biological target: T22, Aurora-B(h) (Homo sapiens, UniProt Q96GD4); assay: as above; format: biochemical
T22 construct: purchased Eurofins (KinaseProfiler platform)
Protocol: as §1, §2

[23] = biological target: T23, EGFR(h) (Homo sapiens, UniProt P00533); assay: as above; format: biochemical
T23 construct: purchased Eurofins (KinaseProfiler platform)
Protocol: as §1, §2

[24] = biological target: T24, IKKβ(h) (Homo sapiens, UniProt O14920); assay: as above; format: biochemical
T24 construct: purchased Eurofins (KinaseProfiler platform)
T24 sequence (O14920 whole entry): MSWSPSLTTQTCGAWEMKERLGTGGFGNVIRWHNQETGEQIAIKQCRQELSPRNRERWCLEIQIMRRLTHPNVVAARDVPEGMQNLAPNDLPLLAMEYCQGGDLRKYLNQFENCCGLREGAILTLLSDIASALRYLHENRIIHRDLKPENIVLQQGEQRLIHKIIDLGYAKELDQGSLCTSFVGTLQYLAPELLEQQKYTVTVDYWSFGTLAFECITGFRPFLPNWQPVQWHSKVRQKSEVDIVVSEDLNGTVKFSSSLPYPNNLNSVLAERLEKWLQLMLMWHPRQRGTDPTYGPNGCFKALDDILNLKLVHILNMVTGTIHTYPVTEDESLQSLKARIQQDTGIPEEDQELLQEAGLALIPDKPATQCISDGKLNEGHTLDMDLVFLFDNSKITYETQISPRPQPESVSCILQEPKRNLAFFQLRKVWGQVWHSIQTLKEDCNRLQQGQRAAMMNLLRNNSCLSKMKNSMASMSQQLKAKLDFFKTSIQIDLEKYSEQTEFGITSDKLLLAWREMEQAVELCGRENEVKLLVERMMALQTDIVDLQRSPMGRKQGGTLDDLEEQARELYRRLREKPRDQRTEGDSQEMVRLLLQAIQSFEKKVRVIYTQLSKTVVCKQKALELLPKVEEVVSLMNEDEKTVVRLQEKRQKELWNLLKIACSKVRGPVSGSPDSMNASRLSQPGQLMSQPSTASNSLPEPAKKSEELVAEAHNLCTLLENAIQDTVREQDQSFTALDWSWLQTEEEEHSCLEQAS
Protocol: as §1, §2

[25] = biological target: T25, IKKα(h) (Homo sapiens, UniProt O15111); assay: as above; format: biochemical
T25 construct: purchased Eurofins (KinaseProfiler platform)
Protocol: as §1, §2

[26] = biological target: T26, CHK1(h) (Homo sapiens, UniProt O14757); assay: as above; format: biochemical
T26 construct: purchased Eurofins (KinaseProfiler platform)
Protocol: as §1, §2

[27] = Pharmacokinetic evaluation of ocular administration to mouse (cornea and plasma exposure); format: in vivo, C57BL/6 mice; conditions: eye drop, 0.1 mg/animal
Protocol: In order to investigate the eye-to-blood ratio of the in vivo exposure amounts of the compound after ocular administration thereof, LC-MS/MS method was used in this study to determine the exposure amounts of compound 1 in cornea and plasma after the ocular administration of the compound 1 to a mouse, where compound screening and analysis were conducted by using the drug concentration at the same time point as an indicator.
C57BL/6 mice, weighing 18-20 g, were randomly divided into 4 groups after 3-5 days of acclimatization, with each group including three mice, and the mice were administered by eye drops at 5 μL for each eye.
The test animals (C57BL/6 mice) were not fasted before administration, but drank water freely before and during the experiment.
About 0.05 mL of blood was collected from saphenous vein at 1 hour and 3 hours following the eye drop administration, anticoagulated with commercial EDTA-K2, and transferred to a centrifuge for centrifugation. After blood sampling from saphenous vein, the corneas were collected under isoflurane anesthesia. At each of the time points, the plasma and corneas of the mice in the same group were pooled for detection.
Plasma: within 30 minutes the plasma was transferred to be subject to centrifugation at 4° C., 3200 g for 10 minutes, and 20 μL of plasma was taken from each mouse. At each time point, the plasma of the mice in the same group was pooled for detection.
Cornea: the cornea was removed, rinsed twice with pre-cooled normal saline, dried with a paper towel, and put into a 1.5 mL centrifuge tube, weighed with an analytical balance by a peeling method, and finally the body weight was weighed. At each time point, the corneas of the mice in the same group were pooled for detection.
Corneal homogenization method: 1 g of cornea was added to 9 mL of pre-cooled methanol: 15 mM phosphate buffer solution=1:2, an ultrasonic cell disruptor (No. 2 amplitude rod, amplitude 50%, working for 5 s, stopping for 5 s, and ultrasonic treatment for 3 min) was used.

IC50 [1]: 112 nM | IC50 [2]: > 10000 nM | IC50 [3]: > 10000 nM | IC50 [4]: 1850 nM | IC50 [5]: > 10000 nM | IC50 [6]: > 10000 nM | IC50 [7]: 934 nM | IC50 [8]: 550 nM | IC50 [9]: > 10000 nM | IC50 [10]: 499 nM | IC50 [11]: 2700 nM | IC50 [12]: > 10000 nM | IC50 [13]: > 10000 nM | IC50 [14]: 847 nM | IC50 [15]: > 10000 nM | IC50 [16]: > 10000 nM | IC50 [17]: > 10000 nM | IC50 [18]: > 10000 nM | IC50 [19]: > 10000 nM | IC50 [20]: > 10000 nM | IC50 [21]: 1040 nM | IC50 [22]: 232 nM | IC50 [23]: > 10000 nM | IC50 [24]: > 10000 nM | IC50 [25]: 946 nM | IC50 [26]: > 10000 nM | Kp at 1 h ([27]; C57BL/6, cornea / plasma, other: eye drops (ocular administration), 1 hour, read-out: eye-to-blood ratio): 641 | Kp at 3 h ([27]; C57BL/6, cornea / plasma, other: eye drops (ocular administration), 3 hours, read-out: eye-to-blood ratio): 427 | concentration at 1 h ([27]; C57BL/6, plasma, other: eye drops (ocular administration), 1 hour, read-out: Drug concentration in plasma): 10.4 nM | concentration at 3 h ([27]; C57BL/6, plasma, other: eye drops (ocular administration), 3 hours, read-out: Drug concentration in plasma): 6.8 nM | Drug concentration in corneal ([27]; 1 hour): 6670 nmol/kg | Drug concentration in corneal ([27]; 3 hours): 2910 nmol/kg
Structure (SMILES): c1cn2c(n1)c(Nc1ccc(N3CCOCC3)cc1)nc1ccc(-c3cn[nH]c3)cc12 [Compound 1]
